Source: US20150274735A1, “USE OF A TETRASUBSTITUTED PYRAZOLO[4, 3-D]PYRIMIDINE COMPOUND FOR TREATING DIABETIC NEPHROPATHY” (priority 2012, published 2015)
“Also recorded” adds a separate entry of the source.

Tests used:
[1] = Single-dose toxicity/toxicokinetic study of polymorph forms in rats; type: in vivo; settings: equivalent doses 100 and 300 mg/kg
[2] = Single-dose toxicity/toxicokinetic study of polymorph forms in dogs; type: in vivo; settings: equivalent dose 100 mg/kg
rat PDE5 = target: T1, rat PDE5 (Rattus norvegicus, UniProt O54735); test: PDE5 enzyme (rat platelet) inhibition; type: biochemical; settings: rat platelet-derived enzyme
T1 construct: rat and dog platelet-derived PDE5; from tissue; host or cells: rat platelets

[3] = target: T2, dog platelet-derived PDE5 (Canis lupus familiaris, UniProt O77746); test: PDE5 enzyme (dog platelet) inhibition; type: biochemical
T2 construct: rat and dog platelet-derived PDE5; from tissue; host or cells: dog platelets

[4] = test system: isolated rat aortic rings; test: Aortic ring relaxation (rat); settings: read-out: Aortic ring vasorelaxation EC50
[5] = test system: spontaneously hypertensive rats (SHR); test: Antihypertensive efficacy in conscious SHR, oral dosing, radiotelemetry; type: in vivo, rat; settings: for Effect on mean arterial pressure (MAP): 14-day dosing period
[6] = target: PDE6 enzyme (human retinal cone) (Homo sapiens, UniProt P51160); test: PDE6 enzyme (human retinal cone) inhibition; type: biochemical
Sequence of PDE6 enzyme (human retinal cone) (P51160 whole entry): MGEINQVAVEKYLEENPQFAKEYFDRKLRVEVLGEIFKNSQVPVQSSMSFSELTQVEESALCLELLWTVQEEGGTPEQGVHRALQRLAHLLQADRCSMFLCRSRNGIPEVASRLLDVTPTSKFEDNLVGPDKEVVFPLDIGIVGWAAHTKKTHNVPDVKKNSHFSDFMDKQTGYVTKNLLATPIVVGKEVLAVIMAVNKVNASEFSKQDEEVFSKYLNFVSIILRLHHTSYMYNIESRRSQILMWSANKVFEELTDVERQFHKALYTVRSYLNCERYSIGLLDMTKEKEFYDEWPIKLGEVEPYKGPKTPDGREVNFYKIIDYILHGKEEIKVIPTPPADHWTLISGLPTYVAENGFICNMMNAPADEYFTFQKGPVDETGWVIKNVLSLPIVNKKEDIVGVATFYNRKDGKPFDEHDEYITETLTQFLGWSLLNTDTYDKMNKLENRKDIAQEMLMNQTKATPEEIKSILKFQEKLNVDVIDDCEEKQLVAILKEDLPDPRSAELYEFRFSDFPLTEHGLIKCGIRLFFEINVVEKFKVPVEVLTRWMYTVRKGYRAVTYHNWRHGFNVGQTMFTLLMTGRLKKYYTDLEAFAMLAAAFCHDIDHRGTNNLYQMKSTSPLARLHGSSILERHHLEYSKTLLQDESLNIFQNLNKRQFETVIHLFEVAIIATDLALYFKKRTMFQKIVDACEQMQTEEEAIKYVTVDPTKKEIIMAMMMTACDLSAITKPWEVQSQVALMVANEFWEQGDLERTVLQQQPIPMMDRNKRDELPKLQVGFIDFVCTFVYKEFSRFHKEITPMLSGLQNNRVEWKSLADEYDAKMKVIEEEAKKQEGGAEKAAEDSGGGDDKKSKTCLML

[7] = target: T3, PDE6 enzyme (human retinal rod) (Homo sapiens, UniProt P16499+P35913); test: PDE6 enzyme (human retinal rod) inhibition; type: biochemical
T3 construct: against human retinal cone and rod; from tissue; host or cells: human retina (rod)

human PDE11 = human PDE11 (Homo sapiens, UniProt Q9HCR9); test: PDE11 enzyme (human) inhibition; type: biochemical
Sequence of human PDE11 (Q9HCR9 whole entry): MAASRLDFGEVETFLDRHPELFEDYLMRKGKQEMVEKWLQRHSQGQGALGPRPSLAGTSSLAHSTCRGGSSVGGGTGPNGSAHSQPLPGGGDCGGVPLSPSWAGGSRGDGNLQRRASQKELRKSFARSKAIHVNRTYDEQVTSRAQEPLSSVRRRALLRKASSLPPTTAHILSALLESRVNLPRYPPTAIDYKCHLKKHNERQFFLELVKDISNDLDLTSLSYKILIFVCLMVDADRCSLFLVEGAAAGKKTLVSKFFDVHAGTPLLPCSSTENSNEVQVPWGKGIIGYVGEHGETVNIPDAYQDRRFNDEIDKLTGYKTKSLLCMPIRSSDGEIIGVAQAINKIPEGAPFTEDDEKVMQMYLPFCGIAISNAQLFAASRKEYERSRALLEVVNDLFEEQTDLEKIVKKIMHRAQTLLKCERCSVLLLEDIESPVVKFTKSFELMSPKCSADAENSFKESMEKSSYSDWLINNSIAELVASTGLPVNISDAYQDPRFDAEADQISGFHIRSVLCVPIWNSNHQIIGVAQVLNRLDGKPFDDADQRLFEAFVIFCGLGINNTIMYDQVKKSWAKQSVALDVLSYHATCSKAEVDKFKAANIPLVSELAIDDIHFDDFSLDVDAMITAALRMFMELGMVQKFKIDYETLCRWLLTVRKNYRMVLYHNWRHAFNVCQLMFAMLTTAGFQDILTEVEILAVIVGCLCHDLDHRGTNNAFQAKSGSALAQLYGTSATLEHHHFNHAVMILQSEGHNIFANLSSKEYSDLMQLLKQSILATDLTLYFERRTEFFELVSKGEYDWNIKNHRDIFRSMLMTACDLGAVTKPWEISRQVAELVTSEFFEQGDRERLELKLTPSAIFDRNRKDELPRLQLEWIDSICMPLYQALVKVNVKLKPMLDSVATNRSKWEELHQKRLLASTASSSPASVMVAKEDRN

dog Purkinje fiber = test: Dog Purkinje fiber assay; settings: up to 10 μM (4.77 μg/mL)
Excerpt: (§1) For in vivo studies, the oral route of exposure was used. Rats given diazepam or frusemide served as positive controls in the locomotor activity and fluid/electrolyte excretion studies, respectively. Dofetilide was used for assay validity or a positive control in the dofetilide and hERG assays, respectively. Positive controls or animals given positive controls were not assessed concurrently in the remaining studies as these studies utilized well-characterized models to evaluate safety parameters.

clinical = settings: male, human, in vivo
Description: (§2) Both single and multiple dose clinical studies were conducted with an oral solution or suspension ranging from single doses of 0.3 to 400 mg and multiple doses of 30 to 200 mg.
(§3) For toxicokinetic studies, this method was validated over a concentration range of 10 to 1000 ng/mL for a 50 μL plasma sample. Radiometric methods were used to measure [^14C]

healthy male volunteers = test: Human tolerability and safety, single and multiple dose clinical studies
Description: as §2

rats [8] = test: Central nervous system - rat, locomotor activity; type: in vivo; settings: oral, up to 300 mg/kg
Description: (§5) For in vivo studies, the oral route of exposure was used. Rats given diazepam or frusemide served as positive controls in the locomotor activity and fluid/electrolyte excretion studies, respectively. […] Positive controls or animals given positive controls were not assessed concurrently in the remaining studies as these studies utilized well-characterized models to evaluate safety parameters.

rats [9] = test: Renal - rat, fluid and electrolyte excretion; type: in vivo; settings: oral, 3, 30, 300 mg/kg
Description: as §5

rats [10] = test: Pulmonary function - rat, respiratory parameters; type: in vivo; settings: oral, up to 300 mg/kg
Description: as §5

dogs = test: Cardiovascular - conscious dogs, hemodynamic and ECG parameters; type: in vivo, dog
Excerpt: as §1
These cardiovascular effects are consistent with cGMP elevation in vascular smooth muscle, resulting from inhibition of cGMP-specific PDE5.

Pharmacokinetics in rats = type: in vivo, rat
Description: as §3

Pharmacokinetics in dogs = type: in vivo, dog
Description: as §3

[11] = Excretion of total radioactivity in rats; type: in vivo, rat
Description: as §3

[12] = Excretion of total radioactivity in dogs; type: in vivo, dog
Description: as §3

[13] = Tissue distribution study in rats, radio labeled compound; type: in vivo, rat; settings: radio labeled Example 1
CYP1A2 = CYP1A2 (Homo sapiens, UniProt P05177); test: CYP inhibition in human liver microsomes; type: in vitro ADME
Sequence of CYP1A2 (P05177 whole entry): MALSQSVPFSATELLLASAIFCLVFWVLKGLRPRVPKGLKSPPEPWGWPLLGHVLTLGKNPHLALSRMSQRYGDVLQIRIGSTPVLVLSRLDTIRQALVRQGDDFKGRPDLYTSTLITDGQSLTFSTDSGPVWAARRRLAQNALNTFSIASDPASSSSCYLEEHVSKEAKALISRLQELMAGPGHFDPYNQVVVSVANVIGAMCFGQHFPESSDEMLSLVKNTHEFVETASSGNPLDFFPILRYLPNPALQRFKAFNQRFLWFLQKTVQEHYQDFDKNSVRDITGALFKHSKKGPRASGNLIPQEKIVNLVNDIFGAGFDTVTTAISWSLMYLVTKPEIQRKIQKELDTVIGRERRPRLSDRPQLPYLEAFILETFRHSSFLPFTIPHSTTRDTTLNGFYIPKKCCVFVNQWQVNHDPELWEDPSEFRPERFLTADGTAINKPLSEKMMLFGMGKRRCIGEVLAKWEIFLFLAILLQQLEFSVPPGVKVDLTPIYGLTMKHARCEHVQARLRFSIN

CYP2C9 = target: T4, CYP2C9 (Homo sapiens, UniProt P11712); test: CYP inhibition in human liver microsomes; type: in vitro ADME
T4 construct: was determined in human liver microsomes; from tissue; host or cells: human liver microsomes
T4 sequence (P11712 whole entry): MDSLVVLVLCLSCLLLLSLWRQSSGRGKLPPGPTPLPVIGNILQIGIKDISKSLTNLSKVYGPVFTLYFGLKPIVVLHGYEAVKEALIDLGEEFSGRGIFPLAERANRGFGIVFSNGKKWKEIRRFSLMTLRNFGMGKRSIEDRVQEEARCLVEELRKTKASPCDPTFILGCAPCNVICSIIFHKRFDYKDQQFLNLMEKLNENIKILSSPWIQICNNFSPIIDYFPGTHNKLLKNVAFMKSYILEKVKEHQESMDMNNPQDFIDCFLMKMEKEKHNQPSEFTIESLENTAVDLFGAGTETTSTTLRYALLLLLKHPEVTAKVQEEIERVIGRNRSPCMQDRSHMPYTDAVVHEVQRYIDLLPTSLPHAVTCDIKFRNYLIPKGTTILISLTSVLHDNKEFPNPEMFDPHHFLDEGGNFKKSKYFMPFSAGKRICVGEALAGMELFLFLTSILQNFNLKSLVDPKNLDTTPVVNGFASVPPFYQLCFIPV

CYP2C19 = target: T5, CYP2C19 (Homo sapiens, UniProt P33261); test: CYP inhibition in human liver microsomes; type: in vitro ADME
T5 construct: was determined in human liver microsomes; from tissue; host or cells: human liver microsomes
T5 sequence (P33261 whole entry): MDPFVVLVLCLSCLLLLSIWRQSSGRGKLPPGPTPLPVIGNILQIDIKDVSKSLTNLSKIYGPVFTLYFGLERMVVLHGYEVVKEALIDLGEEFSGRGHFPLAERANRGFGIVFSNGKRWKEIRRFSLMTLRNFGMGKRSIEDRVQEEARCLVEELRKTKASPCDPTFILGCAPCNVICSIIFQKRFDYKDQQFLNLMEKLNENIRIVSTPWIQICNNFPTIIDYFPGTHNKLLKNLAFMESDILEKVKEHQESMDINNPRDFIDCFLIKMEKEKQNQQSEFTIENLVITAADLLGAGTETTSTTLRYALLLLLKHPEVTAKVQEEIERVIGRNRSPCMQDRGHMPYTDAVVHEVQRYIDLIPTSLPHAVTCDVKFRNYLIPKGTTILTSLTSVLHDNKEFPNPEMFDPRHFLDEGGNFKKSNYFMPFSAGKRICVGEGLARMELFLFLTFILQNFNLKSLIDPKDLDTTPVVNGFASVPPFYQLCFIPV

CYP2D6 = target: T6, CYP2D6 (Homo sapiens, UniProt P10635); test: CYP inhibition in human liver microsomes; type: in vitro ADME
T6 construct: was determined in human liver microsomes; from tissue; host or cells: human liver microsomes
T6 sequence (P10635 whole entry): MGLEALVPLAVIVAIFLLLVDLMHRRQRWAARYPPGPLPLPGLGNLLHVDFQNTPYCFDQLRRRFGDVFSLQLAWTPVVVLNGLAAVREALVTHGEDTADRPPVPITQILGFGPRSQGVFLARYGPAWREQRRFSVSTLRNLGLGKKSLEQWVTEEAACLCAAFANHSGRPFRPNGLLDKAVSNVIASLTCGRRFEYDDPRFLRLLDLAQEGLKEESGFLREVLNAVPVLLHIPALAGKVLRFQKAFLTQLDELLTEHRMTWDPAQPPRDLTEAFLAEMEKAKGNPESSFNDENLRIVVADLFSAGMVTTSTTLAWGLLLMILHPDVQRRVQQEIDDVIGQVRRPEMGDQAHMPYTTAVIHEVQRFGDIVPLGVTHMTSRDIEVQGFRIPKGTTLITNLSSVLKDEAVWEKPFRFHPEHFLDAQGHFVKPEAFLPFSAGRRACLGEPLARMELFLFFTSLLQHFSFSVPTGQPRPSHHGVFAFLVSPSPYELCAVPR

CYP3A4 = CYP3A4 (Homo sapiens, UniProt P08684); test: CYP inhibition in human liver microsomes; type: in vitro ADME; settings: probe midazolam, testosterone and felodipine
Sequence of CYP3A4 (P08684 whole entry): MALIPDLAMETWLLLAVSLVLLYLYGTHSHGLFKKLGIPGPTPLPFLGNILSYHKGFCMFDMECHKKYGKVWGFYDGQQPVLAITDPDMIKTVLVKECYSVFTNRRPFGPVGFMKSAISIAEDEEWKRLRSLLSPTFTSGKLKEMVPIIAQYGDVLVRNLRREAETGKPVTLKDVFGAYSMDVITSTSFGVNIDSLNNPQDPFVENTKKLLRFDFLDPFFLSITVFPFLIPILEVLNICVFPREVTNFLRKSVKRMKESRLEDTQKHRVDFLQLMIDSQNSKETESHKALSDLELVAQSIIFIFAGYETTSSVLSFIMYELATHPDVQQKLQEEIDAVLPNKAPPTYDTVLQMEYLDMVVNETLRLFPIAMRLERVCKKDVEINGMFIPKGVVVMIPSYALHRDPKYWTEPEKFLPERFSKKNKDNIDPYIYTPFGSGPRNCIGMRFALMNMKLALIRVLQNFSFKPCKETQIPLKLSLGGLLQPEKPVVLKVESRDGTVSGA

[14] = test system: major human cytochrome P450 enzymes; test: Inhibition of the major human cytochrome P450 enzymes; type: in vitro ADME
[15] = test system: Salmonella typhimurium (Strains TA-1535, TA-1537) and Escherichia coli (Strain WP2uvrA); test: Microbial reverse mutation (mutagenicity); type: cell-based; parameters: dose or concentration left out as unconfirmed; settings: (±S9)
Description: (§4) Study designs and dose selection were consistent with International Conference on Harmonization and Organization for Economic Cooperation and Development guidelines for mutagenicity and clastogenicity assays. All in vitro tests were conducted with and without exogenous metabolic activation using concentrations up to those limited by cytotoxicity or insolubility.

[16] = test system: Human Peripheral Lymphocytes; test: In vitro cytogenetic assay, structural chromosome aberration; type: cell-based; settings: 100, 350, 500 μg/mL (3 h − S9); 100, 200, 350 μg/mL (3 h + S9); 12.5, 50, 100 μg/mL (24 h − S9)
Description: as §4

Rat Bone Marrow = test: Micronucleus assay in rat bone marrow; type: in vivo; settings: 100, 300, 600 mg/kg/day
Description: as §4

mice = settings: mouse, in vivo, 14 days
rats [17] = settings: rat, in vivo
in vitro [18] = settings: rat, plasma
in vitro [19] = settings: dog, plasma
in vitro [20] = settings: human, plasma
in vitro [21] = settings: rabbit, plasma
[22] = test system: Type II diabetic male patients; test: Microalbuminuria in Type II diabetic patients (FIG. 1); type: in vivo, human; settings: 50 mg daily for 30 days (n=20), relative to baseline or placebo

## CCOCCn1nc(C(=O)NS(C)(=O)=O)c2nc(N(C)CC)nc(Nc3cc(C)ccn3)c21 [Example 1 (polymorph form C), 1-(2-ethoxyethyl)-5-(ethyl(methyl)amino)-7-((4-methylpyridin-2-yl)amino)-N-(methylsulfonyl)-1H-pyrazolo[4,3-d]pyrimidine-3-carboxamide]
[1]
  Systemic exposure, polymorph form C versus form B: no differences in systemic exposure
[2]
  Systemic exposure, polymorph form C versus form B: no differences in systemic exposure

## CCOCCn1nc(C(=O)NS(C)(=O)=O)c2nc(N(C)CC)nc(Nc3cc(C)ccn3)c21 [Example 1, 1-(2-ethoxyethyl)-5-(ethyl(methyl)amino)-7-((4-methylpyridin-2-yl)amino)-N-(methylsulfonyl)-1H-pyrazolo[4,3-d]pyrimidine-3-carboxamide]
Rat PDE5
  IC50: 0.93 nM
[3]
  IC50: 0.65 nM
[4]
  EC50: 3.1 nM
[5]
  Effect on mean arterial pressure (MAP): significant, sustained reduction in MAP
[5]; combined with an ACE inhibitor
  Effect on MAP in combination: greater MAP lowering effects than the ACE inhibitor alone
[5]; daily oral dosing
  Free plasma concentration giving significant MAP reduction, as multiple of rat PDE5 IC50: approximately 7 fold
[5]; oral dosing, unbound plasma concentration
  ECmax (maximally efficacious concentration): ECmax = 6.5 nM
[6]
  IC50: 28.9 nM
[7]
  IC50: 63.6 nM
Human PDE11
  IC50: 26.3 nM
Dog Purkinje fiber
  Effects in dog Purkinje fiber assay: No relevant effects
clinical; 30 mg
  Cmax: 1570 to 1630 ng/mL
clinical; Human Half-life
  half-life: 11.9 to 15.7 h
clinical; Terminal half-life
  half-life: 11.9 to 15.7 h
Healthy male volunteers; healthy male volunteers, any dose
  Changes in vital signs, ECGs, laboratory safety test results, or physical examination results: No significant changes
Healthy male volunteers; human, in vivo
  Tolerability of multiple doses: well tolerated
Healthy male volunteers; human, in vivo, po
  Tolerability of single doses: well tolerated
Healthy male volunteers; humans, single and multiple doses
  Effects on ECG parameters: No clinically-relevant effects
Rats [8]
  Effects on locomotor activity: minor, nondose-related effects consisting of decreased rearing and center rearing
Rats [9]
  Effect on urine volume and electrolyte excretion: dose-related decrease
Rats [10]
  Effects on pulmonary function: no adverse effects
dogs; dogs
  Effects on ECG parameters: not associated with any relevant effects
dogs; dogs, 0.5, 1.5, and 5 mg/kg
  Effect on blood pressure and left ventricular end-diastolic pressure: small, but significant reductions
Pharmacokinetics in rats; rat
  Steady-state distribution volume: lower than total body water
Pharmacokinetics in rats; rat, plasma, po, rats, single dose, read-out: Absolute oral bioavailability
  bioavailability: 82%
Pharmacokinetics in rats; rats
  Half-life (in words): long half-life values
  Oral bioavailability (in words): high
Pharmacokinetics in rats; rats, intravenous administration
  Plasma clearance: low clearance; also recorded: lower that the liver-blood flow
Pharmacokinetics in dogs; dog
  Steady-state distribution volume: lower than total body water
Pharmacokinetics in dogs; dog, plasma, po, dogs, single dose, read-out: Absolute oral bioavailability
  bioavailability: 77%
Pharmacokinetics in dogs; dog, plasma, dogs, 5 mg/kg oral
  Cmax: 12800 ng/mL
Pharmacokinetics in dogs; dogs
  Half-life (in words): long half-life values
  Oral bioavailability (in words): high
Pharmacokinetics in dogs; dogs 5 mg/kg versus humans 30 mg dose
  Dog Cmax as multiple of human Cmax: ~8 times
Pharmacokinetics in dogs; dogs, intravenous administration
  Plasma clearance: low clearance; also recorded: lower that the liver-blood flow
[11]
  Administered dose (total radioactivity) eliminated in feces: greater than 80%
  Time within which the majority of the radioactivity was recovered: ≤ 48 h
  Total radioactivity recovered: greater than 92%
[12]
  Administered dose (total radioactivity) eliminated in feces: greater than 80%
  Time within which the majority of the radioactivity was recovered: ≤ 48 h
  Total radioactivity recovered: greater than 92%
[13]
  Tissue distribution: systemic distribution was generally in proportion to tissue-blood flow
CYP1A2
  IC50: > 30000 nM
CYP2C9
  IC50: > 30000 nM
CYP2C19
  IC50: > 30000 nM
CYP2D6
  IC50: > 30000 nM
CYP3A4
  IC50: > 30000 nM
[14]
  Inhibition of the major human cytochrome P450 enzymes: no significant inhibition
[15]
  Mutagenicity result: Negative
[16]
  Clastogenicity in vitro, structural chromosome aberration result: Negative
Rat Bone Marrow
  Micronucleus assay in rat bone marrow result: Negative
mice
  Maximum non-lethal dose: 2000 mg/kg
Rats [17]
  Single dose toxicity findings: No toxicity was observed
Rats [17]; 14 days
  Maximum non-lethal dose: 2000 mg/kg
In vitro [18]
  fraction unbound: 0.007
In vitro [19]
  fraction unbound: 0.007
In vitro [20]
  fraction unbound: 0.007
In vitro [21]
  fraction unbound: 0.012

## CCCc1nn(C)c2c(=O)[nH]c(-c3cc(S(=O)(=O)N4CCN(C)CC4)ccc3OCC)nc12 [Sildenafil, sildenafil]
clinical; Human Half-life
  half-life: 3.7 h
[22]
  Microalbuminuria / albuminuria: reduces albuminuria
[22]; listed as sildenafil citrate
  Microalbuminuria / albuminuria: significantly decreased

## CCOC(=O)[C@H](CCc1ccccc1)N[C@@H](C)C(=O)N1CCC[C@H]1C(=O)O [enalapril, reference compound]
[5]
  Effect on mean arterial pressure (MAP): significant, sustained reduction in MAP
